The source of these data is ChEMBL document CHEMBL1147927, “Piperazinyl CCR1 antagonists--optimization of human liver microsome stability” (Bioorg Med Chem Lett, 2007).

The target in series [1] is T1, C-C chemokine receptor type 1 (Homo sapiens, UniProt P32246).
T1 sequence (P32246 whole entry): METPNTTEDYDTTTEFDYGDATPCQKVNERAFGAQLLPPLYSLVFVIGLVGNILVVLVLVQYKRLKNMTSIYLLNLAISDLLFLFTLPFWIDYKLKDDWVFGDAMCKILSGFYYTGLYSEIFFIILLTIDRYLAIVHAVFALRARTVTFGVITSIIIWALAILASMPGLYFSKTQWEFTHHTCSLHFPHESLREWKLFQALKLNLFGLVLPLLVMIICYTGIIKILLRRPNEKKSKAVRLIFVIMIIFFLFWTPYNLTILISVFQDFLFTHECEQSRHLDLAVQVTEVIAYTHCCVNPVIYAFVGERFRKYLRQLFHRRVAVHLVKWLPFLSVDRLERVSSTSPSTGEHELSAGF
The series can be described thus: Binding Affinity at CCL3.

Series [2] in a line: Activity at CCL3 by chemotaxis assay. Type of series: functional.
The nature of series [3]: Metabolic stability in human liver microsomes. Type of series: ADME, Microsome.
The nature of series [4]: Metabolic stability in rat liver microsomes. The class given is ADME, Microsome. In general terms: Liver microsomes are vesicles of endoplasmic reticulum, rich in cytochrome P450 enzymes.
Series [5] in a line: Metabolic stability in dog liver microsomes. Type of series: ADME, Canis lupus familiaris, Microsome.
Series [6] is described as follows: Metabolic stability in monkey liver microsomes. Type of series: ADME, Macaca fascicularis, Microsome. Conditions: cynomolgus monkey.
Series [7] can be described thus: Plasma clearance in iv dosed dog. Type of series: ADME, organism-based, Canis lupus familiaris.
Series [8] in a line: Plasma clearance in iv dosed rat. Type of series: ADME, organism-based.
The nature of series [9]: Volume of distribution at steady state in dog. The class given is ADME, organism-based, Canis lupus familiaris. Conditions: in vivo, read-out: Vdss.
Series [10] is described as follows: Volume of distribution at steady state in rat. Type of series: ADME, organism-based. To be noted: in vivo, read-out: Vdss.
The nature of series [11]: Half life in dog. Type of series: ADME, organism-based, Canis lupus familiaris. Conditions: in vivo.
A short description of series [12]: Half life in rat. The class given is ADME, organism-based. To be noted: in vivo.
The nature of series [13]: Bioavailability in dog. Type of series: ADME, organism-based, Canis lupus familiaris. Conditions: in vivo.
Series [14] in a line: Bioavailability in rat. Conditions: in vivo. Type of series: ADME, organism-based.
The nature of series [15]: Plasma clearance in monkey. The class given is ADME, organism-based, Macaca fascicularis. To be noted: cynomolgus monkey.
A short description of series [16]: Volume of distribution at steady state in monkey. To be noted: cynomolgus monkey, in vivo; read-out: Vdss. Type of series: ADME, organism-based, Macaca fascicularis.
The nature of series [17]: Half life in monkey. Type of series: ADME, organism-based, Macaca fascicularis. To be noted: cynomolgus monkey, in vivo.
Series [18] in a line: Bioavailability in monkey. Type of series: ADME, organism-based, Macaca fascicularis. Conditions: cynomolgus monkey, in vivo.

pIC50: −log10 of the molar value. Where only a bound is given, the exact number is not on record here.

Turning to `C[C@@H]1CN(Cc2ccc(F)cc2)[C@@H](C)CN1C(=O)COc1ccc(Cl)cc1CC(=O)O`, the pIC50 (as a rule, the IC50 on a negative log10 scale, so that one unit is a factor of ten) was 7.42 in series [1] and 8.70 in [2]. Besides, the CLhep predicted in series [3] is 4.7 mL/min/kg; in series [4] it was 25 mL/min/kg; in series [5] it was 11 mL/min/kg; in series [6], 18 mL/min/kg. Also, the clearance (commonly the rate of elimination divided by the concentration) was 0.4 mL/min/kg in [7] and 5.2 mL/min/kg in series [8]. Further, the Vd in series [9] was 0.3 L/kg; in [10], 3.2 L/kg. Moreover, the half-life – broadly, the time in which the quantity being followed falls by half – was 11 h in series [11] and 3.7 h in [12].

`C[C@@H]1CN(Cc2ccc(F)cc2)[C@@H](C)CN1C(=O)COc1ccc(Cl)cc1C(=O)CCC(=O)O`: the pIC50 in [1] is 7.89; in [2], above 9.30. Also, the CLhep predicted in series [3] is 4.7 mL/min/kg; in series [4], 31 mL/min/kg; in series [5], 11 mL/min/kg; in series [6] it was 18 mL/min/kg. Moreover, the bioavailability (in general, the share of a dose that reaches the circulation, judged against a reference dose that is usually intravenous) in [13] is 100%; in series [14], 9%. In addition, the clearance in series [7] amounted to 9.7 mL/min/kg; in series [8], 42 mL/min/kg. Moreover, the results for the Vd in series [9] and in [10] were 4.2 L/kg and 4 L/kg, respectively. For the same molecule, the half-life in series [11] is 5.8 h; in [12] it was 2.3 h.

Take `C[C@@H]1CN(Cc2ccc(F)cc2)CCN1C(=O)COc1ccc(Cl)cc1`: the negative-log IC50 (pIC50) in series [1] is 6.07; in series [2], 7.07. Also, the CLhep predicted is 14 mL/min/kg in series [3], 63 mL/min/kg in series [4], 27 mL/min/kg in series [5] and 40 mL/min/kg in [6].

In the case of `C[C@@H]1CN(Cc2ccc(F)cc2)[C@@H](C)CN1C(=O)COc1ccc(Cl)cc1NC(=O)NCCN`, the results for the pIC50 in series [1] and in series [2] were 8.10 and 9.00, respectively. Also, the CLhep predicted in series [3] is 4.9 mL/min/kg; in [4] it was 24 mL/min/kg; in series [5], 11 mL/min/kg; in series [6], 18 mL/min/kg.

In the case of `C[C@@H]1CN(Cc2ccc(F)cc2)[C@@H](C)CN1C(=O)COc1ccc(Cl)cc1C(=O)O`, the pIC50 in series [1] was 7.23; in series [2], 7.17. For the same molecule, the CLhep predicted was 4.7 mL/min/kg in [3], 20 mL/min/kg in series [4], 11 mL/min/kg in series [5] and 31 mL/min/kg in series [6]. Also, the clearance in series [7] is 0.2 mL/min/kg; in series [15], 3.4 mL/min/kg; in series [8], 2.4 mL/min/kg. Besides, the figures for the Vd in [9], in series [16] and in series [10] were 0.2 L/kg, 0.9 L/kg and 2.4 L/kg, respectively. Further, the half-life was 11 h in series [11], 5.9 h in series [17] and 14 h in series [12].

For the molecule `C[C@@H]1CN(Cc2ccc(F)cc2)[C@@H](C)CN1C(=O)COc1ccc(Cl)cc1C(=O)NCCN`, the results for the pIC50 in series [1] and in series [2] were 7.52 and 8.52, respectively. For the same molecule, the CLhep predicted in series [3] was 5.9 mL/min/kg; in [4] it was 22 mL/min/kg; in [5] it was 25 mL/min/kg; in series [6], 36 mL/min/kg. This molecule also yielded a clearance in [8] of 184 mL/min/kg. Further, in series [10], the Vd came to 7.7 L/kg. The molecule also had a half-life in series [12] of 1 h.

As for `C[C@@H]1CN(Cc2ccc(F)cc2)[C@@H](C)CN1C(=O)COc1ccc(Cl)cc1CS(=O)(=O)O`, the figures for the pIC50 in series [1] and in series [2] were 7.64 and 8.52, respectively. For the same molecule, the CLhep predicted in series [3] is 4.7 mL/min/kg; in series [4], 21 mL/min/kg; in [5] it was 11 mL/min/kg; in series [6], 18 mL/min/kg. Moreover, the bioavailability in series [13] was determined as 100%; in series [18], 19%; in series [14], 40%. Moreover, the clearance in [7] stood at 0.2 mL/min/kg; in [15], 51 mL/min/kg; in series [8] it was 17 mL/min/kg. In addition, the Vd turned out to be 0.4 L/kg in [9], 2.1 L/kg in [16] and 2.6 L/kg in [10]. For the same molecule, the half-life in [11] was 21 h; in series [17], 1.1 h; in [12] it was 4.6 h.

`C[C@@H]1CN(Cc2ccc(F)cc2)CCN1C(=O)COc1ccc(Cl)cc1NC(N)=O` [BX 471 FREE BASE] had a negative-log IC50 (pIC50) in series [2] of 8.40. Besides, the CLhep predicted is 16 mL/min/kg in series [3], 62 mL/min/kg in series [4], 28 mL/min/kg in series [5] and 42 mL/min/kg in series [6]. Moreover, the bioavailability in series [14] was 2%. Also, the clearance was 1.7 mL/min/kg in [7], 8.9 mL/min/kg in series [15] and 33 mL/min/kg in series [8]. Besides, the Vd in [9] worked out at 0.6 L/kg; in [16] it was 0.6 L/kg; in series [10], 1.7 L/kg. In addition, the half-life in [11] is 4 h; in [17] it was 0.8 h; in series [12], 0.7 h.
